From PubChem BioAssay AID1033 (Sanford-Burnham Center for Chemical Genomics, 2008) come the findings set out here.

Calls of active or inactive are those of the source. No rule for the calls is given here.

A word on the Kd: it is the concentration at which binding is half-saturated.

The assay concerns the target Chaperone protein DnaK (Escherichia coli (strain K12)) (UniProt P0A6Y8). As to the kind of experiment: E. coli DnaK SBD ligand binding – biophysical, NMR, chaperone (AID 1033). Particulars: Purified DnaK SBD.

Chain of Chaperone protein DnaK (Escherichia coli (strain K12)) (P0A6Y8 whole entry, looked up): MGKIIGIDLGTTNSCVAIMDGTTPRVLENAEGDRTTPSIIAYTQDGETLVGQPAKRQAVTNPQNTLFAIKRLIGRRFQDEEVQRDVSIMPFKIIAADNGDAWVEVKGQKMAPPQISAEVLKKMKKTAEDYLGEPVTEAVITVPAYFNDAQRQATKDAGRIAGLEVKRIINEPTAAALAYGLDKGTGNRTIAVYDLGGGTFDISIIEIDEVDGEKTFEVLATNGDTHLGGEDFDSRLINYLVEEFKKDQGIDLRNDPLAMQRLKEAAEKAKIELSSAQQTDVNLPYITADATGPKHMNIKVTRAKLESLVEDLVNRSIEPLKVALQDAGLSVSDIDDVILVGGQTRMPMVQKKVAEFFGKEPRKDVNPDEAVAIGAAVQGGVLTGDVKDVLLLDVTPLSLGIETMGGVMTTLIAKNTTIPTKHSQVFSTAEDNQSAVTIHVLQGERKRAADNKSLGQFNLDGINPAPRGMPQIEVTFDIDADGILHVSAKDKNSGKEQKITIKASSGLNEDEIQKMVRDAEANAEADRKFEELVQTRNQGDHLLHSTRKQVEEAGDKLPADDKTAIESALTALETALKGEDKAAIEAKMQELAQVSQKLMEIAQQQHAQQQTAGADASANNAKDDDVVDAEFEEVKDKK

In the case of `O=C(O)CC1Sc2ccccc2NC1=O` (stereo not drawn), the Kd was > 4 mM (inactive).
As for `Oc1cc(O)cc(/C=C/c2ccccc2)c1`, the figure is > 4 mM (inactive); as for `CC(=O)O[C@@H]1CC2C(C)(C)C(=O)[C@@H]3O[C@@H]3[C@]2(C)C2CC[C@]3(C)C(=CC(=O)O[C@H]3c3ccoc3)[C@@]21C` (stereo partly drawn), > 4 mM (inactive).
Turning to `O=C1NC(=O)C(C(C[N+](=O)[O-])c2ccc(O)cc2)C(=O)N1` (stereo not drawn), the Kd was > 4 mM (inactive).
For the compound `COc1ccc(C)cc1S(=O)(=O)NC1CCCC1`, the Kd was > 4 mM (inactive).
As to `Cc1nnc(SCc2cccs2)[nH]c1=O`, the Kd is > 4 mM (inactive).
`S=c1nc2c(n[nH]1)[nH]c1ccccc12`: the Kd is > 4 mM (inactive).
With `O=C(Nc1ccon1)c1cc2c(s1)CCCC2`, the Kd was > 4 mM (inactive).
For `Fc1cccc(Cl)c1CN1CCCNCC1`, the Kd is > 4 mM (inactive).
On to `CN1CN(Cc2ccccc2)CN/C1=N/[N+](=O)[O-]`, for which the Kd was > 4 mM (inactive).
`O=C(NC(=S)NC1CCS(=O)(=O)C1)c1ccccc1` (stereo not drawn): the Kd was > 4 mM (inactive).
With `Cc1cc(C(F)(F)F)nn1CC(N)=O`, the Kd is > 4 mM (inactive).
With `CC(=O)c1c(O)c(C)c(O)c2c1OC1=CC(=O)C(C(C)=O)C(=O)C12C` (stereo not drawn) the figure was > 4 mM (inactive); with `O=c1c(Cl)c(NCCO)ncn1-c1ccccc1`, > 4 mM (inactive); with `COc1ccc2c(c1)O[C@H]1c3ccc(OC)cc3OC[C@@H]21`, > 4 mM (inactive).
Turning to `COc1cc2c(cc1OC)[C@@H]1C(=O)c3ccc4c(c3O[C@@H]1CO2)CC(C(C)C)O4` (stereo partly drawn), the Kd was > 4 mM (inactive).
For the compound `Cc1cc(N)n(C2CCOC(C)(C)C2)n1` (stereo not drawn), the Kd is > 4 mM (inactive).
Regarding `CCCNC(=O)CSc1ncccc1C(=O)O`, the Kd was > 4 mM (inactive).
As to `CC(=O)O[C@H]1C[C@@H](OC(C)=O)C(C)(C)C2CC(=O)[C@]3(C)C(CC[C@@]4(C)[C@H](C(=O)O)OC(=O)C5OC543)[C@]21C` (stereo partly drawn), the Kd is > 4 mM (inactive).
As for `O=C1CCC(C(=O)NCc2ccc(Cl)cc2)N1` (stereo not drawn), the figure is > 4 mM (inactive).
In the case of `COn1c(=O)c(-c2ccco2)[n+]([O-])c2ccccc21`, the Kd was > 4 mM (inactive).
As for `Cc1nc(-c2cccc(N)c2)cs1`, the figure is > 4 mM (inactive); as for `O=C(Nc1nncs1)C1(c2ccccc2)CCCC1`, > 4 mM (inactive); as for `NS(=O)(=O)c1ccc(N=C2NC(=O)CS2)cc1`, > 4 mM (inactive).
As for `COc1ccccc1NC(=O)c1snnc1C`, the Kd is > 4 mM (inactive).
Consider `Oc1cccc2[nH]ccc12`, for which the Kd is > 4 mM (inactive).
Consider `Cc1ccc(/C=N/NC(N)=O)o1`, for which the Kd was > 4 mM (inactive).
As to `O=C(Nc1cnccn1)c1ccncc1`, the Kd was > 4 mM (inactive).
Take `COc1c(-c2coc3cc4c(cc3c2=O)CC(OC(C)=O)C(C)(C)O4)ccc2c1C=CC(C)(C)O2` (stereo not drawn): the Kd was > 4 mM (inactive).
With `O=C(OC[C@H]1O[C@H](OC(=O)c2cc(O)c(O)c(OC(=O)c3cc(O)c(O)c(O)c3)c2)[C@H](OC(=O)c2cc(O)c(O)c(OC(=O)c3cc(O)c(O)c(O)c3)c2)[C@@H](OC(=O)c2cc(O)c(O)c(OC(=O)c3cc(O)c(O)c(O)c3)c2)[C@@H]1OC(=O)c1cc(O)c(O)c(OC(=O)c2cc(O)c(O)c(O)c2)c1)c1cc(O)c(O)c(OC(=O)c2cc(O)c(O)c(O)c2)c1`, the Kd was > 4 mM (inactive).
`CC(C(N)=O)N1C(=O)c2ccccc2C1=O` (stereo not drawn): the Kd was > 4 mM (inactive).
With `CNc1nnc(Cc2csc(N)n2)s1`, the Kd was > 4 mM (inactive).
In the case of `CC1(C)CC(=O)c2sc(N)nc2C1`, the Kd is > 4 mM (inactive).
With `Cn1nnc2cc(C(=O)NC3=NCCS3)ccc21` the figure was > 4 mM (inactive); with `COc1cccc(/C=N/N=C2/NC(=O)CS2)c1`, > 4 mM (inactive); with `CC1(C)Cc2c(C#N)c(N)n(-c3ccccc3)c(=O)c2CO1`, > 4 mM (inactive).
As for `N#Cc1cc2c(nc1SCc1ccncc1)CCC2`, the figure is > 4 mM (inactive); as for `CC(=O)c1cc2c(s1)SCC(=O)N2`, > 4 mM (inactive); as for `NCc1csc2ccccc12`, > 4 mM (inactive).
Take `Nc1nnc(SCc2ccc(F)cc2)s1`: the Kd is > 4 mM (inactive).
Turning to `COc1ccc2cnn(-c3ccccc3)c(=O)c2c1OC`, the Kd is > 4 mM (inactive).
Consider `CN1CCN(C(=O)C2CCCNC2)CC1` (stereo not drawn), for which the Kd was > 4 mM (inactive).
Consider `N[C@@H](Cc1cc(I)c(Oc2cc(I)c(O)c(I)c2)c(I)c1)C(=O)O`, for which the Kd was > 4 mM (inactive).
As for `Cc1c(C(=O)Nn2cnnc2)oc2ccccc12`, the Kd was > 4 mM (inactive).
With `Cn1ncc(N2CCOCC2)c(Cl)c1=O` the figure was > 4 mM (inactive).
`CC12CC[C@H](CC1=O)C2(C)C`: the Kd is > 4 mM (inactive).
For the compound `O=C(NCc1ccco1)c1ccc(Br)s1`, the Kd was > 4 mM (inactive).
As for `COc1cc(C(=O)O[C@H]2CC[C@@]3(C)[C@@H]4CC[C@H]5[C@]6(O)C[C@H](O)[C@@]7(O)[C@@H](CN8C[C@@H](C)CC[C@H]8[C@@]7(C)O)[C@]6(O)C[C@@]53OC24O)cc(OC)c1OC`, the figure is > 4 mM (inactive); as for `CCNCC(O)c1ccc([N+](=O)[O-])cc1` (stereo not drawn), > 4 mM (inactive).
In the case of `CC(=O)Nc1cccc(N(C)S(C)(=O)=O)c1`, the Kd was > 4 mM (inactive).
With `CC(=O)c1nnc2cc(C)nn2c1C` the figure was > 4 mM (inactive).
Take `N=c1n(N)c2ccccc2n1CCO`: the Kd is > 4 mM (inactive).
On to `O=C1CCc2ccccc2CN1`, for which the Kd was > 4 mM (inactive).
As to `O=C(O)c1scc2c1CCCC2`, the Kd is > 4 mM (inactive).
For `COc1ccc2c(c1)OCC(Cc1ccc(OC)c(OC(C)=O)c1)C2=O` (stereo not drawn), the Kd is > 4 mM (inactive).
Regarding `CCOCC(=O)N1CCc2ccccc21`, the Kd is > 4 mM (inactive).
With `NCc1ccccc1N1CCCCC1` the figure was > 4 mM (inactive).
With `CN=C(C)c1c(O)n(C)c(=S)n(C)c1=O`, the Kd was > 4 mM (inactive).
On to `Clc1ccc(-n2ccnc2)nn1`, for which the Kd is > 4 mM (inactive).
`COC(=O)c1scc(C)c1N`: the Kd was > 4 mM (inactive).
With `O=C(C1CCC(C(=O)N2CCCC2)CC1)N1CCCC1` (stereo not drawn) the figure was > 4 mM (inactive).
In the case of `S=c1oc(-c2ccncc2)nn1CCc1ccncc1`, the Kd was > 4 mM (inactive).
Take `CCOC(=O)C1CCN(Cc2ccccc2)CC1=O` (stereo not drawn): the Kd was > 4 mM (inactive).
Consider `Nc1ccc2c(c1)COc1ccccc1O2`, for which the Kd was > 4 mM (inactive).
In the case of `O=C1CSC(=Nc2ccccc2)N1`, the Kd was > 4 mM (inactive).
With `COCC(=O)Nc1cc2c3c(c1)CCN3C(=O)CC2` the figure was > 4 mM (inactive); with `CC(=O)NC(=S)Nc1ccccc1N1CCOCC1`, > 4 mM (inactive); with `O=C(O[C@@H]1Cc2c(O)cc(O)cc2O[C@@H]1c1ccc(O)c(O)c1)c1cc(O)c(O)c(O)c1`, > 4 mM (inactive).
Regarding `NC(Cc1c[nH]c2ccccc12)C(=O)O` (stereo not drawn), the Kd is > 4 mM (inactive).
In the case of `COc1ccc(/C=C2/C(=O)N=C(N)N2C)cc1OC`, the Kd was > 4 mM (inactive).
Take `CS/C(N)=C\C(C)=O`: the Kd was > 4 mM (inactive).
Take `NC(=O)Cc1nc(-c2ccc(F)cc2)cs1`: the Kd is > 4 mM (inactive).
On to `O=C(O)c1ccc2nsnc2c1`, for which the Kd was > 4 mM (inactive).
On to `CC(=O)Nc1ccc(NC(=O)c2ccnn2C)cc1`, for which the Kd is > 4 mM (inactive).
For the compound `Cc1[nH]c2ccccc2c1Cc1n[nH]c(=S)n1C`, the Kd is > 4 mM (inactive).
`COc1cc(/C=C2/NC(=S)NC2=O)cc(Cl)c1O`: the Kd is > 4 mM (inactive).
As for `CCC(=O)Oc1ccc(N2C(=O)CCC2=O)cc1`, the figure is > 4 mM (inactive); as for `Cn1c(SCC(N)=O)nc2c1c(=O)[nH]c(=O)n2C`, > 4 mM (inactive).
As for `CC1(C)NC(=O)N(CCOc2ccc3c(c2)CCC3)C1=O`, the Kd was > 4 mM (inactive).
Take `CN1CCN(CC(=O)NC2CCCCC2)CC1`: the Kd is > 4 mM (inactive).
For `CS(=O)(=O)N1CCN(c2ncccn2)CC1`, the Kd was > 4 mM (inactive).
`COc1ccc(C)cc1-n1c(-c2ccncc2)n[nH]c1=S`: the Kd is > 4 mM (inactive).
With `CCCNC(=O)CSc1nnc(C)s1`, the Kd is > 4 mM (inactive).
In the case of `OCC12COC3c4ccccc4C(OC1)N32` (stereo not drawn), the Kd is > 4 mM (inactive).
Turning to `CCc1nnc(NC(C)=O)s1`, the Kd is > 4 mM (inactive).
As for `O=S(=O)(N1CCOCC1)n1nnc2ccccc21`, the figure is > 4 mM (inactive); as for `CP(C)(=O)CCC(=O)O`, > 4 mM (inactive).
As for `COC(=O)C[C@@H]1C2(C)C(=O)[C@@H](CC3C2CC[C@]2(C)C3CC(=O)O[C@H]2c2ccoc2)[C@H](OC(C)=O)C1(C)C` (stereo partly drawn), the figure is > 4 mM (inactive); as for `Cc1ccccc1NC(=O)C1CCC(=O)N1` (stereo not drawn), > 4 mM (inactive); as for `O=C(Nc1ccccc1)C(=O)NC1CC1`, > 4 mM (inactive).
On to `COc1cc([C@@H]2c3cc4c(c(O)c3C[C@H]3COC(=O)[C@@H]32)OCO4)cc(OC)c1OC`, for which the Kd was > 4 mM (inactive).
Turning to `COc1ccc2c(c1)CCCN2C(N)=O`, the Kd was > 4 mM (inactive).
Take `Cc1nnc(-n2cnc3ccccc32)c2ccccc12`: the Kd was > 4 mM (inactive).
On to `CN(C)c1nc(N)nc(-c2nc3ccccc3s2)n1`, for which the Kd is > 4 mM (inactive).
With `CCc1noc(C)c1C(=O)N1CCOCC1`, the Kd was > 4 mM (inactive).
As for `CC(CC(O)C1OC1(C)C)[C@@H]1CCC2(C)C3=CCC4C(C)(C)C(=O)CCC4(C)C3CC[C@@]12C` (stereo partly drawn), the figure is > 4 mM (inactive).
With `S=C(NCc1ccco1)NN1CCOCC1` the figure was > 4 mM (inactive); with `Cc1cc(NS(=O)(=O)Cc2ccccc2)no1`, > 4 mM (inactive).
